Data reported in patent US10798946B2, “Method for managing flea beetles of the family chrysomelidae in Brassica crops” (BASF Agrochemical Products B.V., priority 2015, dated 2020).

System: Psylliodes chrysocephala (PSYICH; rape flea beetle)
Experiment: Field trial: flea beetle attack on winter oilseed rape, counted as crop plants with eating damage
Type: in vivo
Description: A field trial to investigate methods for flea beetle management in Brassica crops was carried out under the regime of Good Experimental Practice (GEP) in Germany, federal state of Niedersachsen. The trial was set up in a 3 time replicated, one factorial randomized block design. The plot size was 45 m^2.
The winter oilseed rape (WOSR) variety used in the trial was the commercial hybrid “Edimax CL®” carrying a tolerance against imidazolinone herbicides. As trap plant Sinapis alba, variety “Ascot” was used.
All WOSR seeds had been commercially treated with the product Aatiram65®, containing the active ingredient Thiram (650 g/I), at a dose rate of […] seeds to protect the seed from emergence diseases.
Only the WOSR seeds for the respective plots had been treated with 160 ml/100 kg seeds with a flowable concentrate containing 8% of Bacillus amyloliquefaciens ssp. plantarum MBI600 as flea beetle repellant.
For the trap plants, no seed treatment was applied.
At the day of seeding, the trap plants were seeded first in the respective plots at a seed rate of 3.6 k/ha using a plot seeder. Afterwards, the plots with WOSR treated with Aatiram65® only were seeded, then WOSR treated on top with Bacillus amyloliquefaciens ssp. plantarum MBI600. Thus, any contamination/mixing of the different seeds and seed treatments was prevented. In both cases, a WOSR seeding rate of 50 seeds per m^2 was targeted.
In order to control any undesired vegetation besides the crop and the trap plants, the commercial broad spectrum herbicide Butisan Top® was applied at a dose rate of 2.0 I/ha pre-emergence of the crop and trap plants.
After the crop was mature enough to overcome flea beetle damage (2-4 true leaf stage (BBCH 12-14)), the plots were sprayed with Pulsar 40 (active ingredient Imazamox) at a dose rate of 0.875 I/ha.
The intensity of the flea beetle attack was evaluated 26 days after seeding (DAS) and 33 DAS by counting the number of crop plants with eating damage. On the first assessment, the crop plants were in 1-2 true leaf stage (BBCH 11-12), at the later assessment, the crop plants had developed to the 1-4 true leaf stage (BBCH 11-14).

Bacillus amyloliquefaciens ssp. plantarum MBI600 [MBI 600]
infestation / number of crop plants attacked by flea beetles (in words) (field trial, both days of assessment): did not reduce the infestation | plants with eating damage (26 DAS) (number of crop plants with eating damage, 26 days after seeding, WOSR Edimax CL, BBCH 11-12, MBI600 seed treatment 160 ml/100 kg seeds of 8% flowable concentrate): 34 | plants with eating damage (33 DAS) (number of crop plants with eating damage, 33 days after seeding, WOSR Edimax CL, BBCH 11-14, MBI600 seed treatment 160 ml/100 kg seeds of 8% flowable concentrate): 34 | plants with eating damage (26 DAS), rel. (relative to treatment 1 (none) = 100, 26 days after seeding): 103 | plants with eating damage (33 DAS), rel. (relative to treatment 1 (none) = 100, 33 days after seeding): 91
